From patent US20070021451A1, “Method for preventing or treating neurologic damage after spinal cord injury” (HAMAMATSU UNIVERSITY SCHOOL OF MEDICINE, priority 2005, published 2007)

Assays:
[1] = Physiologic parameters (body weight, rectal temperature, mean arterial blood pressure) in rabbit model of spinal cord ischemia; type: in vivo, New Zealand White rabbits
Protocol: (§1) Twenty-six male New Zealand White rabbits weighting 2.2 to 3.0 kg were used in this experiment. Spinal cord ischemia was induced by occluding the abdominal aorta with […] for 20 minutes just distal to the renal arteries. Surgical preparation was conducted according to the method described in the literature, Terada H. et. al., J. Thorac. Cardiovasc. Surg. 2001; 122: 979-85. A 24-gauge venous catheter was placed in the marginal ear vein for drug administration. The rabbits were anesthetized with intravenous sodium pentobarbital (25 mg/kg) and allowed to breathe spontaneously. Lidocaine (0.5%) was administered at the site of the skin incision as local anesthesia. The left common carotid artery was cannulated with a 24-gauge catheter for monitoring the arterial pressure. Core body temperature was continuously monitored with a rectal probe and was maintained at 38.5° C. with the aid of heating lamp. The infrarenal abdominal aorta was exposed through a transperitoneal approach. After systemic heparinization (200 U/kg), spinal cord ischemia was induced by occluding the abdominal aorta with […] for 20 minutes just distal to the renal arteries and just above the aortic bifurcation. Then, the […] released, and the flank was closed. […] The rabbits were assigned randomly to 1 of the 4 groups and subjected to the treatment of (1) above in the following manner. The sham group (n=3) underwent the same operation without aortic occlusion. The control group (n=7) received saline (1 ml) intravenously 15 minutes before aortic occlusion. NS-7 (1 mg/kg) was administered intravenously as a bolus dose 15 minutes before aortic occlusion in group A (n=8) or just after releasing the […] onset of reperfusion) in group B (n=8). All the animals survived the entire observation period. Body weight, rectal temperature, and mean arterial blood pressure values at baseline, 10 minutes after ischemia, and 10 minutes after reperfusion are shown in Table 1. There were no significant differences in the weights of the animals.

[2] = test system: Rabbit Model of Spinal Cord Ischemia; assay: Infarct size of spinal cords by TTC staining; type: in vivo, New Zealand White rabbits; conditions: for Infarct size as a percentage of the area of the whole gray matter: mid lumbar, 48 hours after spinal cord ischemia, control 54.7±19.8%
Protocol: as §1, with “All” for “All the”, “were killed by means of a lethal injection of pentobarbital (200 mg/kg) 48 hours” for “survived the entire observation period. Body weight, rectal temperature, and mean arterial blood pressure values at baseline, 10 minutes”, “operation. […] The area of infarction was calculated with National Institutes of Health Image software. The infarct size was expressed as a percentage” for “ischemia, and 10 minutes after reperfusion are shown in Table 1. There were no significant differences in the weights”, “area of the whole gray matter. […]” for “animals.”

[3] = Group A (NS-7 1 mg/kg i.v. 15 min before aortic occlusion), Baseline
[4] = Group A (NS-7 1 mg/kg i.v. 15 min before aortic occlusion), Ischemia, 10 min
[5] = Group A (NS-7 1 mg/kg i.v. 15 min before aortic occlusion), Reperfusion, 10 min
[6] = Group B (NS-7 1 mg/kg i.v. at onset of reperfusion), Baseline
[7] = Group B (NS-7 1 mg/kg i.v. at onset of reperfusion), Ischemia, 10 min
[8] = Group B (NS-7 1 mg/kg i.v. at onset of reperfusion), Reperfusion, 10 min

## Cc1cc(-c2ccc(F)cc2)cc(OCCCCCN2CCCCC2)n1.Cl [NS-7, 4-(4-Fluorophenyl)-2-methyl-6-(5-piperidinopentyloxy)pyridine hydrochloride]
[1]; [3]
  MAP (mean arterial blood pressure): 83 ± 5 mmHg
  Rectal Temp.: 38.4 ± 0.7 °C
[1]; [4]
  MAP (mean arterial blood pressure): 85 ± 5 mmHg
  Rectal Temp.: 38.1 ± 0.4 °C
[1]; [5]
  MAP (mean arterial blood pressure): 78 ± 10 mmHg
  Rectal Temp.: 38.1 ± 0.2 °C
[1]; [6]
  MAP (mean arterial blood pressure): 91 ± 6 mmHg
  Rectal Temp.: 38.5 ± 0.4 °C
[1]; [7]
  MAP (mean arterial blood pressure): 86 ± 7 mmHg
  Rectal Temp.: 38.4 ± 0.5 °C
[1]; [8]
  MAP (mean arterial blood pressure): 81 ± 8 mmHg
  Rectal Temp.: 38.6 ± 0.5 °C
[2]; NS-7 1 mg/kg i.v. at the onset of reperfusion (group B)
  Infarct size as a percentage of the area of the whole gray matter: 12.1±12.8%
[2]; NS-7 1 mg/kg i.v. injected before ischemia (group A)
  Infarct size as a percentage of the area of the whole gray matter: 14.0±14.3%
[2]; NS-7 before ischemia or at the onset of reperfusion, mid lumbar level
  Gray matter infarction in TTC-stained sections (FIG. 1): Minimal gray matter infarction
